# Test results reported in PubChem BioAssay AID288 (DTP/NCI, 2004).
# Records with an inconclusive call do not appear.
# System: BDF1 mice, M5076 sarcoma s.c., survival/tumor T/C
# Test: NCI In Vivo Anticancer Drug Screen. Data for tumor model Sarcoma M5076 (subcutaneous) in B6D2F1 (BDF1) mice
# Protocol: The antitumor activity of compounds was measured in mice bearing transplantable tumors. Survival or tumor size were measured and the results are expressed as the measurement made in the treated group (T) divided by the measurement made in the vehicle treated control group (C). The tumor model used in this assay is Sarcoma M5076 (subcutaneous) in B6D2F1 (BDF1) mice
# [1] = endpoint: median survival time, dose: 50.0 mg/kg/injection, schedule: Q01DX009 (ip), vehicle: saline with Tween-80, higher = longer survival
# [2] = endpoint: median survival time, dose: 100.0 mg/kg/injection, schedule: Q01DX009 (ip), vehicle: saline with Tween-80, higher = longer survival
# [3] = endpoint: median tumor weight (est.), dose: 50.0 mg/kg/injection, schedule: Q01DX009 (ip), vehicle: saline with Tween-80, higher = larger tumour
# [4] = endpoint: median tumor weight (est.), dose: 100.0 mg/kg/injection, schedule: Q01DX009 (ip), vehicle: saline with Tween-80, higher = larger tumour
structure (smiles),measurement,setting,value
CCCCN1C(=O)/C(=C/c2ccccc2OC)SC1=S,T/C,[1],103 % of control
same,T/C,[2],107 % of control
same,T/C,"endpoint: median survival time, dose: 200.0 mg/kg/injection, schedule: Q01DX009 (ip), vehicle: saline with Tween-80, higher = longer survival",93 % of control
same,T/C,[3],98 % of control
same,T/C,[4],97 % of control
same,T/C,"endpoint: median tumor weight (est.), dose: 200.0 mg/kg/injection, schedule: Q01DX009 (ip), vehicle: saline with Tween-80, higher = larger tumour",107 % of control
COC(=O)C[C@](O)(CCCC(C)(C)O)C(=O)O[C@@H]1C(OC)=C[C@]23CCCN2CCc2cc4c(cc2[C@H]13)OCO4,T/C,"endpoint: mean tumor weight, dose: 0.5 mg/kg/injection, schedule: Q02DX011 (ip), vehicle: saline, higher = larger tumour",114 % of control
same,T/C,"endpoint: mean tumor weight, dose: 2.0 mg/kg/injection, schedule: Q02DX011 (ip), vehicle: saline, higher = larger tumour",37 % of control
same,T/C,"endpoint: median tumor weight (est.), dose: 0.5 mg/kg/injection, schedule: Q02DX011 (ip), vehicle: saline, higher = larger tumour",77 % of control
same,T/C,"endpoint: median tumor weight (est.), dose: 2.0 mg/kg/injection, schedule: Q02DX011 (ip), vehicle: saline, higher = larger tumour",34 % of control
OCCNCCN=C1CCC(=NCCNCCO)CC1,T/C,[1],100 % of control
same,T/C,[2],100 % of control
same,T/C,[3],105 % of control
same,T/C,[4],112 % of control
NCCc1ccc(O)c(O)c1,T/C,"endpoint: mean tumor weight, dose: 25.0 mg/kg/injection, schedule: Q02DX011 (ip), vehicle: saline, higher = larger tumour",53 % of control
same,T/C,"endpoint: mean tumor weight, dose: 50.0 mg/kg/injection, schedule: Q02DX011 (ip), vehicle: saline, higher = larger tumour",57 % of control
same,T/C,"endpoint: mean tumor weight, dose: 100.0 mg/kg/injection, schedule: Q02DX011 (ip), vehicle: saline, higher = larger tumour",62 % of control
same,T/C,"endpoint: mean tumor weight, dose: 200.0 mg/kg/injection, schedule: Q02DX011 (ip), vehicle: saline, higher = larger tumour",45 % of control
same,T/C,"endpoint: mean tumor weight, dose: 400.0 mg/kg/injection, schedule: Q02DX011 (ip), vehicle: saline, higher = larger tumour",76 % of control
same,T/C,"endpoint: mean tumor weight, dose: 800.0 mg/kg/injection, schedule: Q02DX011 (ip), vehicle: saline, higher = larger tumour",95 % of control
same,T/C,"endpoint: median survival time, dose: 12.5 mg/kg/injection, schedule: Q02DX030 (ip), vehicle: saline, higher = longer survival",114 % of control
same,T/C,"endpoint: median survival time, dose: 25.0 mg/kg/injection, schedule: Q02DX030 (ip), vehicle: saline, higher = longer survival",99 % of control
same,T/C,"endpoint: median survival time, dose: 50.0 mg/kg/injection, schedule: Q02DX030 (ip), vehicle: saline, higher = longer survival",91 % of control
same,T/C,"endpoint: median survival time, dose: 100.0 mg/kg/injection, schedule: Q02DX030 (ip), vehicle: saline, higher = longer survival",100 % of control
same,T/C,"endpoint: median survival time, dose: 200.0 mg/kg/injection, schedule: Q02DX030 (ip), vehicle: saline, higher = longer survival",93 % of control
same,T/C,"endpoint: median survival time, dose: 800.0 mg/kg/injection, schedule: Q02DX030 (ip), vehicle: saline, higher = longer survival",91 % of control
same,T/C,"endpoint: median tumor weight (est.), dose: 25.0 mg/kg/injection, schedule: Q02DX011 (ip), vehicle: saline, higher = larger tumour",58 % of control
same,T/C,"endpoint: median tumor weight (est.), dose: 50.0 mg/kg/injection, schedule: Q02DX011 (ip), vehicle: saline, higher = larger tumour",59 % of control
same,T/C,"endpoint: median tumor weight (est.), dose: 100.0 mg/kg/injection, schedule: Q02DX011 (ip), vehicle: saline, higher = larger tumour",80 % of control
same,T/C,"endpoint: median tumor weight (est.), dose: 200.0 mg/kg/injection, schedule: Q02DX011 (ip), vehicle: saline, higher = larger tumour",62 % of control
same,T/C,"endpoint: median tumor weight (est.), dose: 400.0 mg/kg/injection, schedule: Q02DX011 (ip), vehicle: saline, higher = larger tumour",66 % of control
same,T/C,"endpoint: median tumor weight (est.), dose: 800.0 mg/kg/injection, schedule: Q02DX011 (ip), vehicle: saline, higher = larger tumour",77 % of control
same,T/C,"endpoint: median tumor weight change, dose: 12.5 mg/kg/injection, schedule: Q02DX006 (ip), vehicle: saline, higher = larger tumour",86 % of control
same,T/C,"endpoint: median tumor weight change, dose: 25.0 mg/kg/injection, schedule: Q02DX006 (ip), vehicle: saline, higher = larger tumour",93 % of control
same,T/C,"endpoint: median tumor weight change, dose: 50.0 mg/kg/injection, schedule: Q02DX006 (ip), vehicle: saline, higher = larger tumour",112 % of control
same,T/C,"endpoint: median tumor weight change, dose: 100.0 mg/kg/injection, schedule: Q02DX006 (ip), vehicle: saline, higher = larger tumour",103 % of control
same,T/C,"endpoint: median tumor weight change, dose: 200.0 mg/kg/injection, schedule: Q02DX006 (ip), vehicle: saline, higher = larger tumour",105 % of control
same,T/C,"endpoint: median tumor weight change, dose: 400.0 mg/kg/injection, schedule: Q02DX006 (ip), vehicle: saline, higher = larger tumour",99 % of control
same,T/C,"endpoint: median tumor weight change, dose: 800.0 mg/kg/injection, schedule: Q02DX006 (ip), vehicle: saline, higher = larger tumour",101 % of control
O=C1/C(=C/c2ccc3c(c2)OCO3)SC(=S)N1c1ccc(Cl)c(Cl)c1,T/C,[1],102 % of control
same,T/C,[2],90 % of control
same,T/C,[3],154 % of control
same,T/C,[4],116 % of control
